Experimental data reported in patent publication US11976072B2, “Diacylglycerol kinase modulating compounds” (priority 2021, dated 2024).

Tests used:
[1] = system: Jurkat NFκB-luciferase cells; assay: Jurkat NFκB-Luciferase Assay; assay type: cell-based; conditions: Homo sapiens; Jurkat NFκB-luciferase cells activated with anti-CD3 antibody (OKT3), 2.5 hrs at 37° C.; geometric mean; read-out: DGK NFKb Luciferase EC50
Experimental: The day after, the excess antibody was washed out five times with 100 ul/well of assay medium (RPMI supplemented with 10% fetal bovine serum) using a Biotek EL406 instrument and leaving 20 ul of residual volume in each well. Jurkat NFκB-luciferase cells (Promega #) were harvested and diluted to 1 million cells/ml in assay medium. […] Thirty microliters of medium containing the Jurkat NFκB-luciferase cells were then dispensed using a Biotek MicroFlo instrument in each well of the compound-containing plate. […] Forty microliters of One-Glo Ex (Promega) was then added to the assay mixture and luciferase activity was read on a Envision plate reader 7 minutes later.

[2] = target: human DGKα (Homo sapiens, UniProt P23743); assay: DGKα Biochemical Activity Assay (ADP-Glo); conditions: recombinant DGKα 1 nM, 100 μM ATP, 18:1 DAG/POPS/octylglucoside micelles, 1 hour at 25° C.; geometric mean; read-out: HTBS DGKa 1X ATP KM IC50;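 also: luminescent detection of ADP produced as DGKα phosphorylates DAG to phosphatidic acid, IC50 from four-parameter nonlinear curve fit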
human DGKα, sequence (P23743 whole entry): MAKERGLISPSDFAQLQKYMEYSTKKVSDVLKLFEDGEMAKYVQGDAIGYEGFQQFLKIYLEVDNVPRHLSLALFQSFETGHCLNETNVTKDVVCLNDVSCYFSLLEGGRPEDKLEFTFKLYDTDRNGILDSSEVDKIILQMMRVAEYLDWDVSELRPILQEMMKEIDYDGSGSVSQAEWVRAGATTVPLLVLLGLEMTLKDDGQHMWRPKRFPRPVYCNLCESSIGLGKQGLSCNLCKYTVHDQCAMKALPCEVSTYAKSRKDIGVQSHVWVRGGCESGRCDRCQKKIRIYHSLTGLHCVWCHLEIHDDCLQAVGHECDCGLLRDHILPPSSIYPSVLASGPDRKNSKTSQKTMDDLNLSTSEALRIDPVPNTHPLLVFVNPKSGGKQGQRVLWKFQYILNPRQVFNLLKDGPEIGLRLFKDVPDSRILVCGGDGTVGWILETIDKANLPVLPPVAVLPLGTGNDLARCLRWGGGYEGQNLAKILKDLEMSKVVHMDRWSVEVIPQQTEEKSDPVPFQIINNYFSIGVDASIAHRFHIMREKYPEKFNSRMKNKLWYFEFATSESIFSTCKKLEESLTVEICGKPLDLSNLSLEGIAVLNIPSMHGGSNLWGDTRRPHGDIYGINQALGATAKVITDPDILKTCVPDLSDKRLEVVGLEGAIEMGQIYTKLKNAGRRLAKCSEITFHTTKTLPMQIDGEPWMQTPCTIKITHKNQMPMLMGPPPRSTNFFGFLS

Row | SMILES | EC50 [1] [nM] | IC50 [2] [nM]
1 | Cc1nnc2nc(N3CCCCc4c(C#CC5CC5)cncc43)c3c(F)c(F)ccc3n12 [Example 1, 5-(6-(cyclopropylethynyl)-2,3,4,5-tetrahydro-1H-pyrido[3,4-b]azepin-1-yl)-6,7-difluoro-1-methyl-[1,2,4]triazolo[4,3-a]quinazoline] | 0.897 | 15.1
2 | Cc1nnc2nc(N3CCCCc4c(C#CC(C)(C)C#N)cncc43)c3c(F)c(F)ccc3n12 [Example 2, 4-(1-(6,7-difluoro-1-methyl-[1,2,4]triazolo[4,3-a]quinazolin-5-yl)-2,3,4,5-tetrahydro-1H-pyrido[3,4-b]azepin-6-yl)-2,2-dimethylbut-3-ynenitrile] | 3.13 | 14.8
3 | Cc1nnc2nc(N3CCCCc4c(C#CC5(C(F)(F)F)CC5)cncc43)c3cc(F)ccc3n12 [Example 3, 7-fluoro-1-methyl-5-(6-((1-(trifluoromethyl)cyclopropyl)ethynyl)-2,3,4,5-tetrahydro-1H-pyrido[3,4-b]azepin-1-yl)-[1,2,4]triazolo[4,3-a]quinazoline] | 1.86 | 35.9
4 | Cc1nnc2nc(N3CCCCc4c(C#CC(C)(C)C#N)cncc43)c3cc(F)ccc3n12 [Example 4, 4-(1-(7-fluoro-1-methyl-[1,2,4]triazolo[4,3-a]quinazolin-5-yl)-2,3,4,5-tetrahydro-1H-pyrido[3,4-b]azepin-6-yl)-2,2-dimethylbut-3-ynenitrile] | 6.92 | 23.9
5 | Cc1nnc2nc(N3CCCCc4c(C#CC5(C)CC5)cncc43)c3cc(F)ccc3n12 [Example 5, 7-fluoro-1-methyl-5-(6-((1-methylcyclopropyl)ethynyl)-2,3,4,5-tetrahydro-1H-pyrido[3,4-b]azepin-1-yl)-[1,2,4]triazolo[4,3-a]quinazoline] | 1.19 | 14.5
6 | Cc1nnc2nc(N3CCCCc4c(C#CC5(C)CC5)cncc43)c3c(F)cccc3n12 [Example 6, 6-fluoro-1-methyl-5-(6-((1-methylcyclopropyl)ethynyl)-2,3,4,5-tetrahydro-1H-pyrido[3,4-b]azepin-1-yl)-[1,2,4]triazolo[4,3-a]quinazoline] | 0.692 | 44.1
7 | Cc1nnc2nc(N3CCCCc4c(C#CC5(C)CC5)cncc43)c3c(F)c(F)ccc3n12 [Example 7, 6,7-difluoro-1-methyl-5-(6-((1-methylcyclopropyl)ethynyl)-2,3,4,5-tetrahydro-1H-pyrido[3,4-b]azepin-1-yl)-[1,2,4]triazolo[4,3-a]quinazoline] | 0.747 | 23.1
8 | Cc1nnc2nc(N3CCCCc4c(C#CC5(C(F)F)CC5)cncc43)c3c(F)c(F)ccc3n12 [Example 8, 5-(6-((1-(difluoromethyl)cyclopropyl)ethynyl)-2,3,4,5-tetrahydro-1H-pyrido[3,4-b]azepin-1-yl)-6,7-difluoro-1-methyl-[1,2,4]triazolo[4,3-a]quinazoline] | 1.65 | 17.7
9 | Cc1nnc2nc(N3CCCCc4c(C#CC5(C(F)(F)F)CC5)cncc43)c3c(F)c(F)ccc3n12 [Example 9, 6,7-difluoro-1-methyl-5-(6-((1-(trifluoromethyl)cyclopropyl)ethynyl)-2,3,4,5-tetrahydro-1H-pyrido[3,4-b]azepin-1-yl)-[1,2,4]triazolo[4,3-a]quinazoline] | 1.53 | 28.5

Now from value to compound:

Row | EC50 [1] [nM] | IC50 [2] [nM] | SMILES
10 | 5.87 | 17.2 | Cc1nnc2nc(N3CCCc4c(C#CC(C)(C)C#N)cncc43)c3c(F)c(F)ccc3n12 [Example 10, 4-(1-(6,7-difluoro-1-methyl-[1,2,4]triazolo[4,3-a]quinazolin-5-yl)-1,2,3,4-tetrahydro-1,7-naphthyridin-5-yl)-2,2-dimethylbut-3-ynenitrile]
11 | 5.77 | 13.9 | Cc1nnc2nc(N3CCCc4c(C#CC5(C(F)F)CC5)cncc43)c3c(F)c(F)ccc3n12 [Example 11, 5-(5-((1-(difluoromethyl)cyclopropyl)ethynyl)-3,4-dihydro-1,7-naphthyridin-1(2H)-yl)-6,7-difluoro-1-methyl-[1,2,4]triazolo[4,3-a]quinazoline]
12 | 1.85 | 37.3 | Cc1nnc2nc(N3CCCc4c(C#CC5(C(C)(F)F)CC5)cncc43)c3c(F)c(F)ccc3n12 [Example 12, 5-(5-((1-(1,1-difluoroethyl)cyclopropyl)ethynyl)-3,4-dihydro-1,7-naphthyridin-1(2H)-yl)-6,7-difluoro-1-methyl-[1,2,4]triazolo[4,3-a]quinazoline]
13 | 1.01 | 7.93 | Fc1ccc2c(c(N3CCCc4c(C#CC5CCC5)cncc43)nc3nncn32)c1F [Example 13, 5-(5-(cyclobutylethynyl)-3,4-dihydro-1,7-naphthyridin-1(2H)-yl)-6,7-difluoro-[1,2,4]triazolo[4,3-a]quinazoline]
14 | 1.4 | 8.19 | Fc1ccc2c(c(N3CCCc4c(C#CC5CC(F)(F)C5)cncc43)nc3nncn32)c1F [Example 14, 5-(5-((3,3-difluorocyclobutyl)ethynyl)-3,4-dihydro-1,7-naphthyridin-1(2H)-yl)-6,7-difluoro-[1,2,4]triazolo[4,3-a]quinazoline]
15 | 1.91 | 7.16 | Fc1ccc2c(c(N3CCCc4c(C#CC5(C(F)F)CC5)cncc43)nc3nncn32)c1F [Example 15, 5-(5-((1-(difluoromethyl)cyclopropyl)ethynyl)-3,4-dihydro-1,7-naphthyridin-1(2H)-yl)-6,7-difluoro-[1,2,4]triazolo[4,3-a]quinazoline]
16 | 1.54 | 22.7 | CC(F)(F)C1(C#Cc2cncc3c2CCCN3c2nc3nncn3c3ccc(F)c(F)c23)CC1 [Example 16, 5-(5-((1-(1,1-difluoroethyl)cyclopropyl)ethynyl)-3,4-dihydro-1,7-naphthyridin-1(2H)-yl)-6,7-difluoro-[1,2,4]triazolo[4,3-a]quinazoline]
17 | 1.16 | 14.7 | Fc1cccc2c1c(N1CCCc3c(C#CC4CC(F)(F)C4)cncc31)nc1nncn12 [Example 17, 5-(5-((3,3-difluorocyclobutyl)ethynyl)-3,4-dihydro-1,7-naphthyridin-1(2H)-yl)-6-fluoro-[1,2,4]triazolo[4,3-a]quinazoline]
18 | 1.5 | 14.2 | Fc1cccc2c1c(N1CCCc3c(C#CC4CCC4)cncc31)nc1nncn12 [Example 18, 5-(5-(cyclobutylethynyl)-3,4-dihydro-1,7-naphthyridin-1(2H)-yl)-6-fluoro-[1,2,4]triazolo[4,3-a]quinazoline]
19 | 1.53 | 21.3 | Fc1cccc2c1c(N1CCCc3c(C#CC4(C(F)F)CC4)cncc31)nc1nncn12 [Example 19, 5-(5-((1-(difluoromethyl)cyclopropyl)ethynyl)-3,4-dihydro-1,7-naphthyridin-1(2H)-yl)-6-fluoro-[1,2,4]triazolo[4,3-a]quinazoline]
20 | 10.3 | 30.1 | Cc1nnc2nc(N(CC(F)F)c3cc(F)cc(C#CC4CCOCC4)c3)c3c(F)cccc3n12 [Example 20, N-(2,2-difluoroethyl)-6-fluoro-N-(3-fluoro-5-((tetrahydro-2H-pyran-4-yl)ethynyl)phenyl)-1-methyl-[1,2,4]triazolo[4,3-a]quinazolin-5-amine]
